Where a name gives a salt, the structure may show the parent alone.
Tests used:
rat platelets [1] = assay: Inhibitory effect ex vivo on collagen-induced platelet aggregation of rat platelets after oral administration (Experiment 2); assay type: in vivo; settings: 10 mg/kg orally, Sprague-Dawley rats fasted about 20 hours, blood 3 hours after administration
Description: A test compound solution (Dose: 10 mg/kg) was orally administered to Sprague-Dawley rats fasted for about 20 hours. Three hours after administration, blood was collected from the abdominal aorta of the rats. […] The bottom layer was further centrifuged to give platelet-poor plasma ("PPP") as the supernatant solution. PRP was diluted with PPP so that the blood platelet counts were 0.8-1×10^6 /mm^3.

Human platelets = assay: Inhibitory effects in vitro on collagen-induced platelet aggregation of human platelets (Experiment 1); assay type: cell-based; settings: human PRP, 37° C., read-out: IC50 (concentration of test compound required to induce 50% inhibition of collagen-induced platelet aggregation)
Text: (§1) (Inhibitory effects in vitro on collagen-induced platelet aggregation of rat or human platelets)
(§2) The bottom layer was further centrifuged to give platelet-poor plasma ("PPP") as the supernatant solution. Platelet counts were adjusted to about 0.8-1×10^6 /mm^3 for rat PRP and about 4×10^5 /mm^3 for human PRP by dilution with PPP.

Rat platelets [2] = assay: Inhibitory effects in vitro on collagen-induced platelet aggregation of rat platelets (Experiment 1); assay type: cell-based; settings: rat PRP, 37° C., read-out: IC50 (concentration of test compound required to induce 50% inhibition of collagen-induced platelet aggregation)
Text: as §1, §2

SMILES: CNCCN1C(=O)[C@H](O)[C@H](c2ccc(OC)cc2)Sc2cc(C)ccc21.Cl (racemic) [(±)-cis-2-(4-methoxyphenyl)-3-hydroxy-5-[2-(N-methylamino)ethyl]-8-methyl-2,3-dihydro-1,5-benzothiazepin-4(5H)-one hydrochloride]
- Platelet aggregation-inhibiting activity (rat platelets [1]): ++ ((++) if the percentage inhibition is not less than 50%)

SMILES: Br.CNCCN1C(=O)[C@H](O)[C@H](c2ccc(C)cc2)Sc2ccccc21 (racemic) [(±)-cis-2-(4-methylphenyl)-3-hydroxy-5-[2-(N-methylamino)ethyl]-2,3-dihydro-1,5-benzothiazepin-4(5H)-one hydrobromide]
- IC50 (Human platelets): 0.3 µg/mL

SMILES: CNCCN1C(=O)[C@H](O)[C@H](c2ccc(OC)cc2)Sc2cc(O)ccc21 (relative stereo) [(±)-cis-2-(4-methoxyphenyl)-3,8-dihydroxy-5-[2-(N--methylamino)ethyl]-2,3-dihydro-1,5-benzothiazepin-4(5H)--one hydrochloride]
- Platelet aggregation-inhibiting activity (rat platelets [1]): ++ ((++) if the percentage inhibition is not less than 50%)

SMILES: CNCCN1C(=O)[C@H](OC(C)=O)[C@H](c2ccc(OC)cc2)Sc2cc(C)ccc21 (relative stereo) [(±)-cis-2-(4-methoxyphenyl)-3-acetoxy-5-[2-(N-methylamino)ethyl]-8-methyl-2,3-dihydro-1,5-benzothiazepin-4(5H)-one hydrochloride. 1/2H2 O.1/2C2 H5 OH]
- Platelet aggregation-inhibiting activity (rat platelets [1]): ++ ((++) if the percentage inhibition is not less than 50%)

SMILES: CNCCN1C(=O)[C@H](OC(C)=O)[C@H](c2ccc(C)cc2)Sc2cc(OC)ccc21 (relative stereo) [(±)-cis-2-(4-methylphenyl)-3-acetoxy-5-[2-(N--methylamino)ethyl]-8-methoxy-2,3-dihydro-1,5-benzothiazepin-4(5H)--one oxalate]
- IC50 (Human platelets): 0.5 µg/mL

SMILES: CNCCN1C(=O)[C@H](OC(C)=O)[C@H](c2ccc(C)cc2)Sc2cc(C)ccc21 (relative stereo) [(±)-cis-2-(4-methylphenyl)-3-acetoxy-5-[2-(N--methylamino)ethyl]-8-methyl-2,3-dihydro-1,5-benzothiazepin-4(5H)--one hydrochloride]
- Platelet aggregation-inhibiting activity (rat platelets [1]): ++ ((++) if the percentage inhibition is not less than 50%)
- IC50 (Rat platelets [2]): 0.5 µg/mL

SMILES: CNCCN1C(=O)[C@H](O)[C@H](c2ccc(C)cc2)Sc2cc(OC)ccc21 (relative stereo) [(±)-cis-2-(4-methylphenyl)-3-hydroxy-5-[2-(N--methylamino)ethyl]-8-methoxy-2,3-dihydro-1,5-benzothiazepin-4(5H)--one hydrochloride]
- IC50 (Rat platelets [2]): 0.3 to 1 µg/mL
- IC50 (Human platelets): 0.5 µg/mL

SMILES: CNCCN1C(=O)[C@H](O)[C@H](c2ccc(C)cc2)Sc2cc(C)ccc21 (relative stereo) [(±)-cis-2-(4-methylphenyl)-3-hydroxy-5-[2-(N--methylamino)ethyl]-8-methyl-2,3-dihydro-1,5-benzothiazepin-4(5H)--one hydrochloride]
- Platelet aggregation-inhibiting activity (rat platelets [1]): ++ ((++) if the percentage inhibition is not less than 50%)
- IC50 (Human platelets): 0.3 µg/mL

SMILES: CNCCN1C(=O)[C@H](O)[C@H](c2ccc(C)cc2)Sc2cc(C)ccc21 (relative stereo) [(±)-cis-2-(4-methylphenyl)-3-hydroxy-5-[2-(N--methylamino)ethyl]-8-methyl-2,3-dihydro-1,5-benzothiazepin-4(5H)--one sulfate]
- IC50 (Rat platelets [2]): 0.1 to 0.3 µg/mL

SMILES: CNCCN1C(=O)[C@H](OC(C)=O)[C@H](c2ccc(OC)cc2)Sc2cc(C)ccc21.O=C(O)C(=O)O (single isomer, unassigned) [(-)-cis-2-(4-methoxyphenyl)-3-acetoxy-5-[2-(N-methylamino)ethyl]-8-methyl-2,3-dihydro-1,5-benzothiazepin-4(5H)-one oxalate]
- Platelet aggregation-inhibiting activity (rat platelets [1]): ++ ((++) if the percentage inhibition is not less than 50%)

SMILES: CNCCN1C(=O)[C@H](O)[C@H](c2ccc(OC)cc2)Sc2cc(C)ccc21 (single isomer, unassigned) [(-)-cis-2-(4-methoxyphenyl)-3-hydroxy-5-[2-(N--methylamino)ethyl]-8-methyl-2,3-dihydro-1,5-benzothiazepin-4(5H)--one hydrobromide]
- Platelet aggregation-inhibiting activity (rat platelets [1]): ++ ((++) if the percentage inhibition is not less than 50%)

SMILES: CNCCN1C(=O)[C@H](O)[C@H](c2ccc(C)cc2)Sc2cc(C)ccc21 (single isomer, unassigned) [(-)-cis-2-(4-methylphenyl)-3-hydroxy-5-[2-(N-methylamino)ethyl]-8-methyl-2,3-dihydro-1,5-benzothiazepin-4(5H)-one hydrochloride hemihydrate]
- IC50 (Rat platelets [2]): 0.1 µg/mL
- IC50 (Human platelets): 0.003 to 0.03 µg/mL

Source: US4594342A, “1,5-benzothiazepine derivative” (priority 1984, dated 1986)
